One series deals with tumor cells. Nature of the series: MTT tumor cell growth inhibition, summary over the cell line panel. The series is classed as cell-based. Conditions: ten tumor cell lines of Table 2, MTT, 72 hours; read-out: IC50 of tumor cell proliferation inhibition, span over the tested cell lines. The source says:
(§1) The tetrazolium salt (MTT) reduction method was used to test the activity of the compounds of the present invention. Human breast cancer cells (MDA-MB-231) (CAS cell library; catalog number: TCHu227), human lung cancer cells (A549) (ATCC® Number: CRM-CCL-185™), human colon cancer cells (HCT-116) (CAS cell library; catalog number: TCHu99), acute monocytic leukemia cells (MV4-11) (ATCC® Number: CRL-9591™), tissue cell lymphoma cells (U-937) (CAS cell library; catalog number: TCHu159), human acute promyelocytic leukemia cells (HL-60) (ATCC® Number: CCL-240™), chronic myelogenous leukemia cells (of K562) (CAS cell library; catalog number: TCHu191), human hepatocellular carcinoma cells (BEL-7404) (CAS cell library; catalog number: TCHu64), human pancreatic cancer cells (BxPC3) (ATCC® Number: […])) and human prostate cancer cells (PC-3) (ATCC®Number: […]) were inoculated in 96-well plates, 90 μL/well, with 3000 to 8000 cells in respective well; in the first row of plate, 100 μL/well culture medium was added; the 96-well plate was pre-incubated in an incubator at 37° C., 5% CO2, and 100% relative humidity for 24 hours.
(§2) A compound was weighed and configured to a 10 mM/L stock solution, and the compound was diluted three-fold sequentially from the highest concentration of 2 millimoles (mM); 95 μl the corresponding cell medium was added to each well of a V-bottom dispensing plate; 5 μl of the compound on a 200× plate was transferred to a 10× dispensing plate according to the concentration; 5 μl of dimethylsulfoxide (DMSO) was evenly mixed in the corresponding 95 μl cell culture medium as a vehicle control. 10 μl of the compound-medium in each well of the 10× dispensing plate was added to a 96-well plate already plated with cells. […]
(§3) After the compound for cells was treated for 72 hours, 20 microliters of 5 mg/ml MTT was added to each well; all the steps need to be aseptic. […] The absorbance at 490 nm was read on a SpectraMax M2e instrument. The compound activity (relative IC50) was calculated using GraphPad Prism software.

For another series, the system named is blood cells. Nature of the series: Effect on blood phase, complete blood count (CBC) analysis. The format is in vivo, BAB-C mice. The conditions noted are these: mouse, in vivo, 0.5 mg/kg. How it is done: BAB-C mice (6 to 8 weeks old, a half being males and the other half females, weighing about 18 g-25 g, supplier: Beijing Vital River Laboratory Animal Technology Co., Ltd.) were raised for one week and then divided into three groups: normal control group, Romidepsin group, and compound A group. The normal group was injected with the vehicle; the drug group was injected with 0.5 mg/kg of the drug; 24 hours and 48 hours respectively after administration, a complete blood count (CBC) analysis was performed; for all the data, mean±standard deviation (mean±SD) was adopted; T tests were performed between inter-group data.

In series [1] the test system is human pancreatic cancer cells (BxPC3). Nature of the series: MTT tumor cell growth inhibition, BxPC3. The series is classed as cell-based. The conditions noted are these: BXPC-3, 72 hours, relative IC50.
Description: as §1, §2, §3

In series [2] the test system is tissue cell lymphoma cells (U-937). Nature of the series: MTT tumor cell growth inhibition, U-937. The series is classed as cell-based. The conditions noted are these: Homo sapiens; U-937, MTT, 72 hours, relative IC50.
Description: as §1, §2, §3

Series [3] concerns human prostate cancer cells (PC-3). Nature of the series: MTT tumor cell growth inhibition, PC-3. The conditions noted are these: PC-3, MTT, 72 hours, relative IC50. The series is classed as cell-based.
Description: as §1, §2, §3

The test system of series [4] is human lung cancer cell line NCI-H460. Nature of the series: In vivo pharmacodynamic study of compound A, NCI-H460 nude mice transplanted tumor model. On the set-up: species or system BALB/C nude mice. Conditions: q4d, 4x. As to the method: (§4) Female BALB/C nude mice 6 weeks to 8 weeks old and weighing about 19 g to 29 g were taken (Supplier: Beijing Vital River Laboratory Animal Technology Co., Ltd.) and raised for a week. A human cancer nude mice […] transplanted tumor model was established: Human breast cancer cell line MDA-MB-231 (ATCC® Number: HTB-26™) and human lung cancer cell line NCI-H460 (ATCC® Number: HTB-177™) were incubated. The monolayer tumor cells were digested and detached; then, they were collected and resuspended in a serum-free culture medium, and then were adjusted to a concentration of 2×10^6/0.2 mL. They were put into an iced box and brought to an animal house. A syringe with a No. 6 needle was used to directly take a 0.2 mL cell suspension and transplanted it into the rear subcutaneous scapular regions of the left axillaries of the nude mice at 2×10^6/0.2 mL per mouse. Tumor volumes were measured once every 2 days to 3 days. After two weeks, tumor-bearing nude mice with vigorous tumor growth and no ulceration were selected, the tumors were removed from them under sterile conditions. The tumor tissues were cut to about 2 mm to 3 mm in diameter and inoculated in the rear subcutaneous scapular regions of the left axillaries of the nude mice. After passage for three generations, when the tumor volume grew to 100 mm^3, nude mice with tumor masses that were too large or too small were removed and randomly grouped for administration.
(§5) The mice were randomly divided into five groups, including the negative control group (vehicle), positive control group (Romidepsin, 2.4 mg/kg), treatment group with the high, medium, and low doses of compound A (respectively 7.2 mg/kg, 4.8 mg/kg, 2.4 mg/kg, wherein the high dose was lower than the maximum tolerated dose, MTD); there were six nude mice in each group; intravenous administration was given every 4 days; 4 doses were given. During the period, the weights and tumor volumes of the animals were measured every 2 days, and the number of animal deaths was recorded. 24 hours after the last administration, the animals were sacrificed. The tumor volumes, tumor weights, and body weights of nude mice were measured; tumor volume growth curves, nude mice weight growth curves and tumor inhibition rates, mortality of the animals were plotted; the relative tumor proliferation rate T/C (%) was calculated; according to the formula T/C (%)=TRTV/CRTV*100%. (TRTV: treatment group RTV; CRTV: negative control group RTV, relative tumor volume RTV=Vt/V0, wherein V0 is the tumor volume at the time of administration by group; Vt is the post-administration tumor volume).

Series [5] has as its system chronic myelogenous leukemia cells (K562). Nature of the series: MTT tumor cell growth inhibition, K562. The format is cell-based. The conditions noted are these: Homo sapiens, 72 hours, relative IC50.
Description: as §1, §2, §3

The test system of series [6] is human colon cancer cells (HCT-116). Nature of the series: MTT tumor cell growth inhibition, HCT-116. The format is cell-based. Conditions: HCT-116, MTT, 72 hours, relative IC50.
Description: as §1, §2, §3

Series [7] has as its system Human breast cancer cell line MDA-MB-231. Nature of the series: In vivo pharmacodynamic study of compound A, MDA-MB-231 nude mice transplanted tumor model. On the set-up: species or system BALB/C nude mice. Conditions: MDA-MB-231 model, q4d, 4x. How it is done:
as §4, §5

The test system of series [8] is human hepatocellular carcinoma cells (BEL-7404). Nature of the series: MTT tumor cell growth inhibition, BEL-7404. The format is cell-based. The conditions noted are these: BEL-7404, MTT, 72 hours, relative IC50.
Description: as §1, §2, §3

Series [9] relates to human acute promyelocytic leukemia cells (HL-60). Nature of the series: MTT tumor cell growth inhibition, HL-60. The conditions noted are these: HL-60, MTT, 72 hours, relative IC50. The series is classed as cell-based.
Description: as §1, §2, §3

Series [10] has as its system acute monocytic leukemia cells (MV4-11). Nature of the series: MTT tumor cell growth inhibition, MV4-11. The format is cell-based. Conditions: Homo sapiens; MV4-11, MTT, 72 hours, relative IC50.
Description: as §1, §2, §3

For series [11], the system named is Human breast cancer cells (MDA-MB-231). Nature of the series: MTT tumor cell growth inhibition, MDA-MB-231. Conditions: MDA-MB-231, MTT, 72 hours, relative IC50. The format is cell-based.
Description: as §1, §2, §3

Series [12] has as its system human lung cancer cells (A549). Nature of the series: MTT tumor cell growth inhibition, A549. The series is classed as cell-based. Conditions: 72 hours, relative IC50.
Description: as §1, §2, §3

The test system of the next series is MDA-MB-231 breast cancer. Nature of the series: In vivo efficacy study of compound B, xenografted MDA-MB-231 breast cancer. On the set-up: species or system BALB/c nude mice. Conditions: once a week for four weeks; for Day 28 tumor volume: mean ± standard error. As to the method:
Female BALB/C nude mice 6 weeks to 8 weeks old and weighing about 19 g to 29 g were taken and raised for one week (supplier: Beijing Vital River Laboratory Animal Technology Co., Ltd.) MDA-MB-231 (ATCC® Number: HTB-26™) breast cancer cells were cultured in vitro; the culture conditions were: 10% fetal bovine serum was added to an L-15 medium, 37° C., and 0% CO2. Passage was performed twice a week. When the cells were in the exponential growth phase, the cells were collected, counted, and inoculated. […] The cells were suspended in phosphate buffered saline (PBS) and Matrigel (1:1) was added. A total of 50 mice were inoculated. […] The experimental indicator was to examine whether the tumor growth was inhibited, delayed, or subsided. Tumor diameter was measured three times a week with a vernier caliper. The formula for calculating tumor volume is as follows: […] The antitumor efficacy of the compound was evaluated with T/C (%) and of TGI. […] T0 indicates the mean tumor volume of the treatment group at the time of administration by cage; Vi indicates the mean tumor volume of the vehicle group on the same day; V0 indicates the mean tumor volume of the vehicle group at the time of administration by cage. At the end of the experiment, the tumors were stripped, weighed, and photographed.

Structures are written as SMILES.

As for `C/C=C1\NC(=O)[C@H]2C[S+]([O-])SCC/C=C/[C@H](CC(=O)N[C@H](C(C)C)C(=O)N2)OC(=O)[C@H](C(C)C)NC1=O` (stereo partly drawn) [Compound A], the IC50 was 9.7 to 35.9 nM in the series with tumor cells; 13.9 nM in series [1]; 22.8 nM in series [2]; 11.9 nM in series [3]; 23.2 nM in series [5]; 29.3 nM in series [6]. The IC50 in series [8] is 10 nM; in series [9] it was 35.9 nM; in series [10], 33 nM; in [11], 9.7 nM; in series [12], 10.7 nM. For the same compound, the “PLT compared with the normal group” value with blood cells is on record as “significantly decreased”. Also, the “WBCs compared with the normal group” value in the series on blood cells was “no significant difference compared with the normal group”. Further, the “Relative tumor proliferation rates T/C (%)” value in [4] (2.4 mg/kg) is 44%(2.4 mg/kg, q4d, 4x); in series [4] (4.8 mg/kg), 38.6%(4.8 mg/kg, q4d, 4x); in [4] (7.2 mg/kg), 25.2%(7.2 mg/kg, q4d, 4x); in [7] (2.4 mg/kg) it was 45.5%(2.4 mg/kg, q4d, 4x); in series [7] (4.8 mg/kg) it was 35.4%(4.8 mg/kg, q4d, 4x); in [7] (7.2 mg/kg), 29.8%(7.2 mg/kg, q4d, 4x).
`C/C=C1\NC(=O)[C@H]2CS[S+]([O-])CC/C=C/[C@H](CC(=O)N[C@H](C(C)C)C(=O)N2)OC(=O)[C@H](C(C)C)NC1=O` (stereo partly drawn) [Compound B]: the IC50 in the series with tumor cells was 2 to 6.5 nM; in series [1] it was 6.5 nM; in [2] it was 5.4 nM; in series [3], 6.1 nM; in series [5] it was 2.6 nM; in series [6], 6.1 nM. Also, the IC50 in [8] is 4.9 nM; in [9] it was 3.4 nM; in [10] it was 4.8 nM; in [11], 2 nM; in series [12] it was 3.6 nM. In addition, the “Day 28 tumor volume” value turned out to be 259 ± 47 mm^3 in the series on MDA-MB-231 breast cancer (2.2 mg/kg intravenous); 259 mm^3 in the series with MDA-MB-231 breast cancer (2.2 mg/kg intravenous, listed as compound B); 202 ± 38 mm^3 in the series on MDA-MB-231 breast cancer (4.4 mg/kg intravenous); 202 mm^3 in the series on MDA-MB-231 breast cancer (4.4 mg/kg intravenous, listed as compound B); 187 ± 29 mm^3 in the series with MDA-MB-231 breast cancer (6.6 mg/kg intravenous); 187 mm^3 with MDA-MB-231 breast cancer (6.6 mg/kg intravenous, listed as compound B). For the same compound, the “T/C (%)” value in the series on MDA-MB-231 breast cancer (day 28, 2.2 mg/kg intravenous) worked out at 11.3%; in the series on MDA-MB-231 breast cancer (day 28, 4.4 mg/kg intravenous), 5.9%; with MDA-MB-231 breast cancer (day 28, 6.6 mg/kg intravenous), 4.5%. In addition, the “TGI (%)” value in the series on MDA-MB-231 breast cancer (day 28, 2.2 mg/kg intravenous) was determined as 88.7%; in the series with MDA-MB-231 breast cancer (day 28, 4.4 mg/kg intravenous), 94.1%; with MDA-MB-231 breast cancer (day 28, 6.6 mg/kg intravenous), 95.5%.

Values taken from patent publication US20180057530A1, “CYCLIC PEPTIDE COMPOUND, AND PREPARATION AND USE THEREOF” (Zhejiang Hisun Pharmaceutical Co., Ltd., priority 2015, published 2018).
